Like-named read-outs stand apart in the source and are kept apart here.
Experiments:
OATP2B1 = biological target: T1, OATP2B1 (Homo sapiens, UniProt O94956); test: OATP2B1 activity: E3S accumulation in HEK-OATP2B1 cells; conditions: for effect on OATP2B1 activity: pyrethroid 100 μM
T1 sequence (O94956 1-709): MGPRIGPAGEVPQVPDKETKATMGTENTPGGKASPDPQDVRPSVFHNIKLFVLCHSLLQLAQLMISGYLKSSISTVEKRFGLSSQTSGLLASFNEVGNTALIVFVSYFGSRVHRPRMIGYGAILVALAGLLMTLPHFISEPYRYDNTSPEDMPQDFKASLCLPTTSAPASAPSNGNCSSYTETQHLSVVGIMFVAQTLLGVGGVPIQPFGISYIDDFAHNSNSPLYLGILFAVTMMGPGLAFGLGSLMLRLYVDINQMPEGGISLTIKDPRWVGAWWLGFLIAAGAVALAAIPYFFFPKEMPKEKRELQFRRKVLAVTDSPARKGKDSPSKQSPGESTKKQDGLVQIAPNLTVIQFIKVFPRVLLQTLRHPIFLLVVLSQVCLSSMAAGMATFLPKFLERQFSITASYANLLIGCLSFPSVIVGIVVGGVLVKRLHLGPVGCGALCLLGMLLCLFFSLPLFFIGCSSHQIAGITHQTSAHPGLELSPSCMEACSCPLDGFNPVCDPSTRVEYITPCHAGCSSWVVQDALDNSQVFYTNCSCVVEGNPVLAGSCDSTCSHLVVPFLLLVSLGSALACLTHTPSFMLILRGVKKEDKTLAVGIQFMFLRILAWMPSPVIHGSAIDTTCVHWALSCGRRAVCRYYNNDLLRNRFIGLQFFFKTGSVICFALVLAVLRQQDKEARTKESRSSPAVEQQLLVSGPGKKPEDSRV
Description: (§1) The effects of pyrethroids on activity of ABC and SLC transporters were determined through measuring cellular accumulation or retention of fluorescent or radiolabeled reference substrates for transporters, in the presence or absence of reference inhibitors, as previously described. The nature of cells and reference substrates and inhibitors used for transport assays are summarized in S3 Table.
(§2) The nature of substrates and reference inhibitors and the incubation times with substrates, that varied according to the transporter, were selected in agreement with previous studies and are indicated in S3 Table. The total incubation volume with substrates was 200 μL/well. […] An aliquot of cell lysate (5 μL) was then taken for determining cellular protein content by the Bradford method.
(§3) Intracellular concentrations of reference substrates were initially expressed as fluorescence arbitrary units (for fluorescent dye substrates) or as moles (for radiolabeled substrates) and normalized to cellular protein content, determined by the Bradford method. They were finally used for calculating percentage of transporter activity, according to the following equations [41, 45]: %ABCtransporter activity=([Substrateref inh]-[Substratepyrethroid])×100/([Substrateref inh]-[Substratecontrol]) (1) %SLC transporter activity=([Substratepyrethroid]-[Substratref inh])×100/([Substratecontrol]-[Substrateref inh]) (2) with [Substratepyrethroid] = cellular concentration of reference substrate in the presence of pyrethroid, [Substrateref inh] = cellular concentration of reference substrate in the presence of reference inhibitor and [Substratecontrol] = cellular concentration of reference substrate in control cells not exposed to pyrethroid or reference inhibitor.
(§4) The initial tested concentration of pyrethroids was 100 μM. […] Such concentrations were calculated using GraphPad Prism software (GraphPad Software, La Jolla, CA), through nonlinear regression based on the four parameter logistic function using the following equations: […]

OCT1 = biological target: T2, OCT1 (Homo sapiens, UniProt O15245); test: OCT1 activity: DAPI accumulation in HEK-OCT1 cells; conditions: for effect on OCT1 activity: pyrethroid 100 μM; for effect on OCT1 activity / IC50: DAPI; for IC50: IC50 for OCT1 inhibition, HEK-OCT1 cells; for inhibition at 100 μM: human, pH 7.4
T2 sequence (O15245 1-554): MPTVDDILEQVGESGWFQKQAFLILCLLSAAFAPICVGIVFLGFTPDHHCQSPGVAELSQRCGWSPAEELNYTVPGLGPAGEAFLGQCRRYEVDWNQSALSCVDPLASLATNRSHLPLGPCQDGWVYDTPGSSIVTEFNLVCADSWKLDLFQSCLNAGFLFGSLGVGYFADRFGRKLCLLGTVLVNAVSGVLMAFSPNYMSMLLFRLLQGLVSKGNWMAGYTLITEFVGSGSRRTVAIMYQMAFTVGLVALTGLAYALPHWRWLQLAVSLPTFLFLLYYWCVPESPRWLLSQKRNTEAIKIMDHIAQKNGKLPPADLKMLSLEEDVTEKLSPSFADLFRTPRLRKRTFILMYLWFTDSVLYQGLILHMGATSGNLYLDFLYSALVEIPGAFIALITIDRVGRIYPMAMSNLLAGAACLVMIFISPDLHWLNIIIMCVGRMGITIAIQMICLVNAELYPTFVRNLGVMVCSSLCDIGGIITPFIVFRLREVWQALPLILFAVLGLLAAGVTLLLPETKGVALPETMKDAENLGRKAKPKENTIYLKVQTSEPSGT
Description: as §1, §2, §3, §4

MRP2 = biological target: T3, MRP2 (Homo sapiens, UniProt Q92887); test: MRP2 activity: CF accumulation in HuH-7 cells; type: cell-based; conditions: for inhibition at 100 μM: human, pH 7.4
T3 construct: multidrug resistance-associated protein (MRP) 2/ABCC2-expressing human hepatoma HuH-7 cells; endogenous in cells; host or cells: HuH-7 human hepatoma cells
T3 sequence (Q92887 whole entry): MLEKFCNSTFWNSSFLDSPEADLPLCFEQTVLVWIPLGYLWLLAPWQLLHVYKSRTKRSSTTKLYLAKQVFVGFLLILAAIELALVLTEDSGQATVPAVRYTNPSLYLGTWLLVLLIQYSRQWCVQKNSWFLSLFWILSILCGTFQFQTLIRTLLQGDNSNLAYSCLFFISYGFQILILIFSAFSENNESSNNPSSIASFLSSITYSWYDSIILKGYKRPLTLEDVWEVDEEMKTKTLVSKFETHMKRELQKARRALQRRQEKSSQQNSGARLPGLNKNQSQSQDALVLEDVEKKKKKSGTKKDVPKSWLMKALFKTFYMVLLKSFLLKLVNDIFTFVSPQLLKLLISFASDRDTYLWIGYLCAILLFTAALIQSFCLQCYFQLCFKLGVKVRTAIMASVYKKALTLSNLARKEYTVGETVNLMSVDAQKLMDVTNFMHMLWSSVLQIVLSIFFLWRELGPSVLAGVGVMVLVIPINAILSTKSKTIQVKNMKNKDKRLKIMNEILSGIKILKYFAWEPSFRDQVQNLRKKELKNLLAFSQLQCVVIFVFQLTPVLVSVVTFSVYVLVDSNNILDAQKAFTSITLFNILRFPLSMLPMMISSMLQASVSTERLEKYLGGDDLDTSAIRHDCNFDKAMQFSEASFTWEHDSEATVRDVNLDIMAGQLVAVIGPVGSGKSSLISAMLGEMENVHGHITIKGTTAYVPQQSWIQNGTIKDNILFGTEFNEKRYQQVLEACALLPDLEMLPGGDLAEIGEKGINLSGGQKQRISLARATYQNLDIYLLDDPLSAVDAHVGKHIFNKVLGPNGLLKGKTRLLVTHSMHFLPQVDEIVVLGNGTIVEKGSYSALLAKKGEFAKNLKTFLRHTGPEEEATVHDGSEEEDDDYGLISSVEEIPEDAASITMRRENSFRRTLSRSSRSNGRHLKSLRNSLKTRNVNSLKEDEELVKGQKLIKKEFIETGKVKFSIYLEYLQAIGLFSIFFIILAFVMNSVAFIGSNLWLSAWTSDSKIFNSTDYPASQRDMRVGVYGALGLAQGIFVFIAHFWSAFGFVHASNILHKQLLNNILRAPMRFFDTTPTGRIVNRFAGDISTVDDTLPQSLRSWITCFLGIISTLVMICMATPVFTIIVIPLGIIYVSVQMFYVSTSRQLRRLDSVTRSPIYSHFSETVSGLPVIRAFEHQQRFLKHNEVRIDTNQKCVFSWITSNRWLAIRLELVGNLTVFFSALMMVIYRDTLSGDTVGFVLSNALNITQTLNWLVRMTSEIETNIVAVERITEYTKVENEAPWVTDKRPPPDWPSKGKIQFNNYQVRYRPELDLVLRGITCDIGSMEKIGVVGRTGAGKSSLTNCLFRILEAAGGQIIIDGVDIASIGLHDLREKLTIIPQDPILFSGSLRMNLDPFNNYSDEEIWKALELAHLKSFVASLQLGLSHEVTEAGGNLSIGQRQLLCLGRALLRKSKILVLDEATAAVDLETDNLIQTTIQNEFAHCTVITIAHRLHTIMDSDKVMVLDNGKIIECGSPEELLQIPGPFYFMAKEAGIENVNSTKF
Description: (§5) The initial tested concentration of pyrethroids was 100 μM.

MATE1 = biological target: T4, MATE1 (Homo sapiens, UniProt Q96FL8); test: MATE1 activity: TEA accumulation in HEK-MATE1 cells; type: cell-based; conditions: for inhibition at 100 μM: human, pH 8.4
T4 construct: host or cells: HEK293
T4 sequence (Q96FL8 1-570): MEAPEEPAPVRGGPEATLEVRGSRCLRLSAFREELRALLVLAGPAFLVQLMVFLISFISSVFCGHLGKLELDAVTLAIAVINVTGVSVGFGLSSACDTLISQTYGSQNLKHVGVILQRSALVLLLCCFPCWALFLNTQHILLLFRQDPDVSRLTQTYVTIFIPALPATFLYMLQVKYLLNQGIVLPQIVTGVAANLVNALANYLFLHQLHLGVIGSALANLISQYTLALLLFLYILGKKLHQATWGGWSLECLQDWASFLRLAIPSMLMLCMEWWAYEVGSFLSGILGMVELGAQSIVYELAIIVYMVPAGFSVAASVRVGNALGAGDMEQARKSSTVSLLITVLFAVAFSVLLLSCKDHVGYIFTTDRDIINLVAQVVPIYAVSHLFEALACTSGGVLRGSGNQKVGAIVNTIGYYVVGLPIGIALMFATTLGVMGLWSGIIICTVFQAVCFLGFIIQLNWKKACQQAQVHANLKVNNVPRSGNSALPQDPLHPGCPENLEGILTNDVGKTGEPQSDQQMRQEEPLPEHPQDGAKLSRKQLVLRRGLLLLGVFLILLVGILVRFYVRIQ
Description: as §5

Compound: C#CCN1CC(=O)N(COC(=O)[C@@H]2C(C=C(C)C)C2(C)C)C1=O (mixture of isomers) [imiprothrin]
- effect on OATP2B1 activity (OATP2B1): cis-stimulated
- effect on OCT1 activity (OCT1): markedly inhibited

Compound: C=CCC1=C(C)C(OC(=O)C2C(C=C(C)C)C2(C)C)CC1=O (stereo not shown) [allethrin]
- IC50 (MRP2): 48.2 µM
- inhibition at 100 μM (MRP2): 83.8%
- EC50 (OATP2B1): 37.8 µM
- effect on OATP2B1 activity (OATP2B1): cis-stimulated
- IC50 (MATE1): 50.2 µM
- inhibition at 100 μM (MATE1): > 79%
- IC50 (OCT1): 2.6 µM
- inhibition at 100 μM (OCT1): 87.9%

Compound: C#CCC1=C(C)C(OC(=O)C2C(C=C(C)C)C2(C)C)CC1=O (stereo not shown) [prallethrin]
- effect on OATP2B1 activity (OATP2B1): cis-stimulated
- effect on OCT1 activity (OCT1): markedly inhibited

Compound: CC(C)=CC1C(C(=O)OCN2C(=O)C3=C(CCCC3)C2=O)C1(C)C (stereo not shown) [tetramethrin]
- IC50 (MRP2): 65.5 µM
- inhibition at 100 μM (MRP2; pyrethroid 100 μM, HuH-7 cells, CF, read-out: inhibition of MRP2 activity): 58.3%
- EC50 (OATP2B1): 10.1 µM
- IC50 (MATE1): 47.5 µM
- inhibition at 100 μM (MATE1; pyrethroid 100 μM, HEK-MATE1 cells, TEA, read-out: inhibition of MATE1 activity): > 79%
- IC50 (OCT1): 4.9 µM
- inhibition at 100 μM (OCT1): 73.8%

From paper PMC5242521 (PLoS ONE, 2017)
